Test results reported in US20260206761A1, “HETEROARYL-TRIAZOLE COMPOUNDS AS PESTICIDES” (Bayer Aktiengesellschaft, priority 2019, published 2026).

What was measured:
Assay type in all cases: in vivo
[1] = tested on: larvae of the banded cucumber beetle (Diabrotica balteata); experiment: Diabrotica balteata spray test; settings: 168 h, after 7 days, read-out: activity (efficacy: seedlings grown); for pest or weed control at 100 g/ha: application rate 100 g/ha (=32 pg/well); for pest or weed control at 500 g/ha: application rate 500 g/ha (=160 pg/well)
Summary of the method: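 Read-out is % efficacy at day 7, 0% meaning no seedling growth and 100% growth equal to uninfested untreated controls. Test solutions (acetone/DMF concentrate diluted with water carrying 1000 ppm emulsifier) were sprayed onto 1-day-germinated wheat seeds, 5 per well, before infestation with 10-20 larvae.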

[2] = tested on: green peach aphid (Myzus persicae); experiment: Myzus persicae oral test; settings: 120 h, application rate 4 ppm, after 5 days
Summary of the method: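 Readout: % mortality at day 5, where 100% = all aphids dead and 0% = none dead. Feeding via parafilm membrane over compound in IPL41 medium (33%+15% sugar); mixed-age population. Stock in acetone (1:100 w/w), water-diluted.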

[3] = tested on: Culex quinquefasciatus strain P00; experiment: Culex quinquefasciatus test (CULXFA surface treatment & contact assay); settings: 24 hours after contact, read-out: efficacy (mortality); for mortality at 4 mg/m2: surface concentration 4 mg/m^2, exposure 30 minutes; for mortality at 20 mg/m2: surface concentration 20 mg/m^2, exposure 30 minutes
Summary of the method: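 Compound in acetone (2 mg/ml) with 2000 ppm rapeseed oil methyl ester, dried onto glazed tile. Adult mosquitoes exposed to the treated surface for 30 min. Percent mortality scored 24 h after contact.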

[4] = tested on: Anopheles funestus strain FUMOZ-R; experiment: Anopheles funestus test (ANPHFU surface treatment & contact assay); settings: 24 hours after contact, read-out: efficacy (mortality); for mortality at 4 mg/m2: surface concentration 4 mg/m^2, exposure 30 minutes; for mortality at 20 mg/m2: surface concentration 20 mg/m^2, exposure 30 minutes
Summary of the method: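 Compound dissolved in acetone at 2 mg/ml with 2000 ppm RME, pipetted onto glazed tile; acetone evaporated. Adult FUMOZ-R mosquitoes exposed to dried surface for 30 min. Percent mortality scored 24 h after contact.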

[5] = tested on: adult brown dog ticks (Rhipicephalus sanguineus); experiment: Rhipicephalus sanguineus in-vitro contact test, adult brown dog ticks; settings: after 48 hours, read-out: activity (efficacy: ticks dead or moribund); for pest or weed control at 100 g/ha: application rate 1 pg/cm^2 (=100 g/ha); for pest or weed control at 5 µg/cm2, 500 g/ha: application rate 5 μg/cm^2 (=500 g/ha)
Summary of the method: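 Contact exposure: dried compound film inside glass tubes, dose 5 μg/cm^2 at 900 ppm, 5-10 adults per tube at room temperature. Scored at 48 h via a heat-escape test on a 45-50° C plate for up to 5 min.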

[6] = tested on: Musca domestica strain WHO-N; experiment: Musca domestica test (MUSCDO surface treatment & contact assay); settings: 24 hours after contact, read-out: efficacy (mortality); for mortality at 20 mg/m2: surface concentration 20 mg/m^2, exposure 30 minutes; for mortality at 4 mg/m2: surface concentration 4 mg/m^2, exposure 30 minutes
Summary of the method: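 Compound dissolved at 2 mg/ml in acetone with 2000 ppm rapeseed oil methyl ester and pipetted onto a glazed tile. After the acetone evaporated, adult WHO-N flies were exposed to the dried surface for 30 min, with % mortality scored 24 h after contact.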

| SMILES | pest or weed control at 100 g/ha [1] [%] | pest or weed control at 500 g/ha [1] [%] | mortality at 4 ppm [2] [%] | mortality at 4 mg/m2 [3] [%] | mortality at 20 mg/m2 [3] [%] | mortality at 4 mg/m2 [4] [%] | pest or weed control at 100 g/ha [5] [%] | pest or weed control at 5 µg/cm2, 500 g/ha [5] [%] | mortality at 20 mg/m2 [4] [%] | mortality at 20 mg/m2 [6] [%] | mortality at 4 mg/m2 [6] [%] |
| --- | --- | --- | --- | --- | --- | --- | --- | --- | --- | --- | --- |
| C[C@H](NC(=O)c1cc(Cl)cc(S(=O)(=O)C(F)F)c1)c1ncnn1-c1ccc(C#N)cn1 [II-17] | 100 | 100 | 100 | 80 to 100 | 80 to 100 | 80 to 100 | – | – | – | – | – |
| C[C@H](NC(=O)c1cc(Cl)cc(S(=O)(=O)C(F)F)c1)c1ncnn1-c1ncccn1 [II-34] | 100 | 100 | 100 | 80 to 100 | 80 to 100 | 80 to 100 | 100 | 100 | 80 to 100 | 80 to 100 | – |
| CC(C)c1nc([C@H](C)NC(=O)c2cc(OC(F)(F)F)cc(C3CC3)c2)n(-c2ccc(C#N)cn2)n1 [I-23] | 80 | – | – | – | – | 80 to 100 | 100 | 100 | 80 to 100 | 80 to 100 | – |
| Cc1nc([C@H](C)NC(=O)c2cc(Cl)cc(S(=O)(=O)C(F)F)c2)n(-c2ccc(Cl)cn2)n1 [II-36] | 100 | 100 | 100 | – | – | – | – | 80 | – | – | 80 to 100 |
| C[C@H](NC(=O)c1cc(C(F)(F)F)cc(S(C)(=O)=O)c1)c1ncnn1-c1ccc(Cl)cn1 [II-16] | 100 | 100 | 100 | 80 to 100 | – | 80 to 100 | – | – | – | – | – |
| CC(NC(=O)c1cc(C(F)(F)F)cc(S(C)(=O)=O)c1)c1nc(Cl)nn1-c1ncccn1 (stereo not shown) [I-30] | 100 | – | 100 | – | – | 80 to 100 | 100 | 100 | 80 to 100 | 80 to 100 | – |
| C[C@H](NC(=O)c1cc(C#N)cc(S(C)(=O)=O)c1)c1ncnn1-c1ccc(Cl)cn1 [II-29] | – | 100 | 100 | 80 to 100 | – | – | 80 | 100 | – | – | – |
| C[C@H](NC(=O)c1cc(C2CC2)cc(C(F)(F)F)c1)c1ncnn1-c1ccc(Cl)cn1 [II-27] | 100 | 100 | – | 80 to 100 | 80 to 100 | 80 to 100 | 100 | 100 | – | 80 to 100 | 80 to 100 |
| Cc1nc([C@H](C)NC(=O)c2cc(Cl)cc(C3(C#N)CC3)c2)n(-c2ccc(C#N)cn2)n1 [II-38] | 100 | – | 100 | – | – | – | 100 | 100 | – | 80 to 100 | 80 to 100 |
| C[C@H](NC(=O)c1cc(Cl)cc(S(=O)(=O)C(F)(F)F)c1)c1ncnn1-c1ncc(OC(F)F)cn1 [II-43] | 100 | – | 100 | 80 to 100 | – | – | – | – | – | – | – |
| Cc1nc([C@H](C)NC(=O)c2cc(Cl)nn2C)n(-c2ccc(C#N)cn2)n1 [II-11] | 100 | 100 | – | 80 to 100 | – | 80 to 100 | 80 | 80 | 80 to 100 | – | 80 to 100 |
| C[C@H](NC(=O)c1cc(C#N)cc(C2CC2)c1)c1ncnn1-c1ncccn1 [II-54] | 100 | – | 100 | – | – | – | 100 | – | 80 to 100 | – | – |
| Cc1nc([C@H](C)NC(=O)c2cc(C(F)(F)F)n(C)n2)n(-c2ccc(C#N)cn2)n1 [II-7] | 100 | 100 | – | – | 80 to 100 | 80 to 100 | – | – | – | 80 to 100 | – |
| C[C@H](NC(=O)c1cc(Cl)cc(S(=O)(=O)C2CC2)c1)c1nc(C2CC2)nn1-c1ncc(Cl)cn1 [I-25] | 100 | – | 100 | 80 to 100 | 80 to 100 | – | – | – | – | 80 to 100 | 80 to 100 |
| C[C@H](NC(=O)c1cc(C2CC2)cc(C(F)(F)F)c1)c1ncnn1-c1ccc(C#N)cn1 [II-26] | 100 | 100 | 100 | – | – | – | 100 | 100 | – | 80 to 100 | 80 to 100 |
| C[C@H](NC(=O)c1cc(OC(F)(F)F)cc(C2CC2)c1)c1ncnn1-c1ccccn1 [II-22] | 100 | 100 | 100 | – | 80 to 100 | – | – | – | – | 80 to 100 | 80 to 100 |
| C[C@H](NC(=O)c1cc(C#N)cc([S+](C)[O-])c1)c1ncnn1-c1ccc(C#N)cn1 (stereo partly shown) [II-12] | 100 | 100 | 100 | 80 to 100 | 80 to 100 | 80 to 100 | – | – | 80 to 100 | – | – |
| C[C@H](NC(=O)c1cc(C(F)(F)F)cc(S(=O)(=O)C2CC2)c1)c1ncnn1-c1ccc(C#N)cn1 [II-32] | 100 | 100 | 100 | 80 to 100 | 80 to 100 | – | 100 | 100 | – | 80 to 100 | 80 to 100 |
| CSc1cc(C#N)cc(C(=O)N[C@@H](C)c2ncnn2-c2ccc(C#N)cn2)c1 [II-3] | 100 | 100 | 100 | 80 to 100 | 80 to 100 | – | – | – | 80 to 100 | – | – |
| C[C@H](NC(=O)c1cc(Cl)cc([S+]([O-])C(F)F)c1)c1ncnn1-c1ccc(C#N)cn1 (stereo partly drawn) [II-18, 3-chloro-N-{(1S)-1-[1-(5-cyanopyridin-2-yl)-1H-1,2,4-triazol-5-yl]ethyl}-5-[(difluoro-methyl)sulfinyl]benzamide] | 100 | 100 | 100 | 80 to 100 | 80 to 100 | – | – | – | – | 80 to 100 | – |
| Cc1nc([C@H](C)NC(=O)c2cc(Cl)cc(S(=O)(=O)C(F)F)c2)n(-c2ccc(C#N)cn2)n1 [II-35] | 100 | 100 | 100 | – | – | – | – | 80 | – | 80 to 100 | 80 to 100 |
| Cc1nc([C@H](C)NC(=O)c2cc(C(F)(F)F)cc(C3(C#N)CC3)c2)n(-c2ccc(Cl)cn2)n1 [II-50] | 100 | – | 100 | – | – | – | 100 | 100 | – | 80 to 100 | – |
| C[C@H](NC(=O)c1cc(OC(F)(F)F)cc(C2CC2)c1)c1ncnn1-c1ccc(Cl)cn1 [II-23] | 100 | 100 | – | 80 to 100 | 80 to 100 | – | 100 | 100 | 80 to 100 | 80 to 100 | 80 to 100 |
| Cc1nc([C@H](C)NC(=O)c2cc(C(F)(F)F)cc(S(C)(=O)=O)c2)n(-c2ccc(C#N)cn2)n1 [II-52] | 100 | – | – | – | – | – | 100 | 100 | – | 80 to 100 | 80 to 100 |
| Cc1nc([C@H](C)NC(=O)c2cc(C(F)(F)F)n(C)n2)n(-c2ncccn2)n1 [II-25] | – | 100 | – | 80 to 100 | 80 to 100 | 80 to 100 | 100 | 100 | 80 to 100 | 80 to 100 | 80 to 100 |
